Data reported in PubChem BioAssay (NCI).
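A five-concentration, 48-hour dose response in 96-well plates underlies each endpoint, interpolated linearly between surrounding concentrations. TGI: concentration producing complete growth inhibition.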

How the values were obtained:
Experiment in all cases: NCI-60 cell line screen, 48 h
IGROV1 ovarian = tested on: IGROV1 ovarian
KM20L2 colon = tested on: KM20L2 colon
NCI-H522 lung = tested on: NCI-H522 lung
RXF 393 renal = tested on: RXF 393 renal
MOLT-4 leukemia = tested on: MOLT-4 leukemia
MALME-3M melanoma = tested on: MALME-3M melanoma
HCC-2998 colon = tested on: HCC-2998 colon
OVCAR-5 ovarian = tested on: OVCAR-5 ovarian
TK-10 renal = tested on: TK-10 renal
SK-MEL-5 melanoma = tested on: SK-MEL-5 melanoma
HT29 colon = tested on: HT29 colon
HCT-15 colon = tested on: HCT-15 colon
SK-MEL-2 melanoma = tested on: SK-MEL-2 melanoma
KM12 colon = tested on: KM12 colon
XF 498 CNS = tested on: XF 498 CNS
COLO 205 colon = tested on: COLO 205 colon
SNB-78 CNS = tested on: SNB-78 CNS
K-562 leukemia = tested on: K-562 leukemia
SK-OV-3 ovarian = tested on: SK-OV-3 ovarian
SR leukemia = tested on: SR leukemia
CCRF-CEM leukemia = tested on: CCRF-CEM leukemia
OVCAR-4 ovarian = tested on: OVCAR-4 ovarian
UO-31 renal = tested on: UO-31 renal
CAKI-1 renal = tested on: CAKI-1 renal
DMS 273 small cell lung = tested on: DMS 273 small cell lung
OVCAR-8 ovarian = tested on: OVCAR-8 ovarian
SN12C renal = tested on: SN12C renal
OVCAR-3 ovarian = tested on: OVCAR-3 ovarian
DLD-1 colon = tested on: DLD-1 colon
SNB-19 CNS = tested on: SNB-19 CNS
SW-620 colon = tested on: SW-620 colon
SK-MEL-28 melanoma = tested on: SK-MEL-28 melanoma
LXFL 529 NSCLC = tested on: LXFL 529 NSCLC
NCI-H23 lung = tested on: NCI-H23 lung
M14 melanoma = tested on: M14 melanoma
HOP-92 NSCLC = tested on: HOP-92 NSCLC
U251 CNS = tested on: U251 CNS
UACC-62 melanoma = tested on: UACC-62 melanoma
SF-295 CNS = tested on: SF-295 CNS
DMS 114 small cell lung = tested on: DMS 114 small cell lung
RPMI-8226 leukemia = tested on: RPMI-8226 leukemia
HCT-116 colon = tested on: HCT-116 colon
UACC-257 melanoma = tested on: UACC-257 melanoma
ACHN renal = tested on: ACHN renal
SNB-75 CNS = tested on: SNB-75 CNS
NCI-H460 lung = tested on: NCI-H460 lung
A498 renal = tested on: A498 renal
786-0 renal = tested on: 786-0 renal
HOP-62 NSCLC = tested on: HOP-62 NSCLC
M19-MEL melanoma = tested on: M19-MEL melanoma
SF-268 CNS = tested on: SF-268 CNS
A549 NSCLC = tested on: A549 NSCLC
HL-60(TB) leukemia = tested on: HL-60(TB) leukemia
EKVX NSCLC = tested on: EKVX NSCLC
SF-539 CNS = tested on: SF-539 CNS
LOX IMVI melanoma = tested on: LOX IMVI melanoma
NCI-H226 lung = tested on: NCI-H226 lung
HOP-18 NSCLC = tested on: HOP-18 NSCLC

O=C(N/C(=C\c1ccc(Br)cc1)c1nc2ccccc2[nH]1)c1ccccc1
TGI (IGROV1 ovarian): 66.6 µM
TGI (KM20L2 colon): 29.8 µM
TGI (NCI-H522 lung): 29.8 µM
TGI (RXF 393 renal): 30.4 µM
TGI (MOLT-4 leukemia): 67.4 µM
TGI (MALME-3M melanoma): 45.6 µM
TGI (HCC-2998 colon): 30.9 µM
TGI (OVCAR-5 ovarian): 52 µM
TGI (TK-10 renal): 84.7 µM
TGI (SK-MEL-5 melanoma): 37 µM
TGI (HT29 colon): 36.4 µM
TGI (HCT-15 colon): 39.4 µM
TGI (SK-MEL-2 melanoma): 30.9 µM
TGI (KM12 colon): 33.5 µM
TGI (XF 498 CNS): 34.2 µM
TGI (COLO 205 colon): 41.1 µM
TGI (SNB-78 CNS): 59.6 µM
TGI (K-562 leukemia): 52.6 µM
TGI (SK-OV-3 ovarian): 86.3 µM
TGI (SR leukemia): 50.9 µM
TGI (CCRF-CEM leukemia): 70.2 µM
TGI (OVCAR-4 ovarian): 36.5 µM
TGI (UO-31 renal): 33.7 µM
TGI (CAKI-1 renal): 65.1 µM
TGI (DMS 273 small cell lung): 58.9 µM
TGI (OVCAR-8 ovarian): 40 µM
TGI (SN12C renal): 32.7 µM
TGI (OVCAR-3 ovarian): 46.2 µM
TGI (DLD-1 colon): 59.8 µM
TGI (SNB-19 CNS): 41.6 µM
TGI (SW-620 colon): 29.6 µM
TGI (SK-MEL-28 melanoma): 30.3 µM
TGI (LXFL 529 NSCLC): 30.9 µM
TGI (NCI-H23 lung): 36 µM
TGI (M14 melanoma): 32.8 µM
TGI (HOP-92 NSCLC): 24.7 µM
TGI (U251 CNS): 33.5 µM
TGI (UACC-62 melanoma): 43.6 µM
TGI (SF-295 CNS): 64.5 µM

COc1ccc2c(c1)CC[C@@H]1C2CC[C@](C)(C#N)C1CC#N (stereo not given in full)
TGI (IGROV1 ovarian): > 100 µM
TGI (KM20L2 colon): > 100 µM
TGI (NCI-H522 lung): > 100 µM
TGI (RXF 393 renal): > 100 µM
TGI (DMS 114 small cell lung): > 100 µM
TGI (RPMI-8226 leukemia): > 100 µM
TGI (MOLT-4 leukemia): > 100 µM
TGI (MALME-3M melanoma): > 100 µM
TGI (HCT-116 colon): > 100 µM
TGI (UACC-257 melanoma): > 100 µM
TGI (ACHN renal): > 100 µM
TGI (OVCAR-5 ovarian): > 100 µM
TGI (HT29 colon): > 100 µM
TGI (SNB-75 CNS): > 100 µM
TGI (NCI-H460 lung): > 100 µM
TGI (A498 renal): > 100 µM
TGI (KM12 colon): > 100 µM
TGI (COLO 205 colon): > 100 µM
TGI (SNB-78 CNS): > 100 µM
TGI (K-562 leukemia): > 100 µM
TGI (SK-OV-3 ovarian): > 100 µM
TGI (SR leukemia): > 100 µM
TGI (CCRF-CEM leukemia): > 100 µM
TGI (OVCAR-4 ovarian): > 100 µM
TGI (UO-31 renal): > 100 µM
TGI (786-0 renal): > 100 µM
TGI (HOP-62 NSCLC): > 100 µM
TGI (OVCAR-3 ovarian): > 100 µM
TGI (SNB-19 CNS): > 100 µM
TGI (SK-MEL-28 melanoma): > 100 µM
TGI (M19-MEL melanoma): > 100 µM
TGI (LXFL 529 NSCLC): > 100 µM
TGI (NCI-H23 lung): > 100 µM
TGI (M14 melanoma): > 100 µM
TGI (HOP-92 NSCLC): > 100 µM
TGI (U251 CNS): > 100 µM
TGI (UACC-62 melanoma): > 100 µM
TGI (SF-268 CNS): > 100 µM
TGI (SF-295 CNS): > 100 µM

O=C1C[C@@H]2[C@@H](CCC23CC3)N1
TGI (IGROV1 ovarian): > 100 µM
TGI (KM20L2 colon): > 100 µM
TGI (NCI-H522 lung): > 100 µM
TGI (RXF 393 renal): > 100 µM
TGI (A549 NSCLC): > 100 µM
TGI (HL-60(TB) leukemia): > 100 µM
TGI (DMS 114 small cell lung): > 100 µM
TGI (RPMI-8226 leukemia): > 100 µM
TGI (MALME-3M melanoma): > 100 µM
TGI (HCT-116 colon): > 100 µM
TGI (UACC-257 melanoma): > 100 µM
TGI (HCC-2998 colon): > 100 µM
TGI (OVCAR-5 ovarian): > 100 µM
TGI (TK-10 renal): > 100 µM
TGI (SK-MEL-5 melanoma): > 100 µM
TGI (HT29 colon): > 100 µM
TGI (SNB-75 CNS): > 100 µM
TGI (NCI-H460 lung): > 100 µM
TGI (EKVX NSCLC): > 100 µM
TGI (SF-539 CNS): > 100 µM
TGI (A498 renal): > 100 µM
TGI (SK-MEL-2 melanoma): > 100 µM
TGI (KM12 colon): > 100 µM
TGI (COLO 205 colon): > 100 µM
TGI (SNB-78 CNS): > 100 µM
TGI (K-562 leukemia): > 100 µM
TGI (SK-OV-3 ovarian): > 100 µM
TGI (CCRF-CEM leukemia): > 100 µM
TGI (OVCAR-4 ovarian): > 100 µM
TGI (UO-31 renal): > 100 µM
TGI (CAKI-1 renal): > 100 µM
TGI (DMS 273 small cell lung): > 100 µM
TGI (786-0 renal): > 100 µM
TGI (OVCAR-8 ovarian): > 100 µM
TGI (HOP-62 NSCLC): > 100 µM
TGI (SN12C renal): > 100 µM
TGI (LOX IMVI melanoma): > 100 µM
TGI (OVCAR-3 ovarian): > 100 µM
TGI (DLD-1 colon): > 100 µM
TGI (NCI-H226 lung): > 100 µM
TGI (SNB-19 CNS): > 100 µM
TGI (HOP-18 NSCLC): > 100 µM
TGI (SW-620 colon): > 100 µM
TGI (SK-MEL-28 melanoma): > 100 µM
TGI (M19-MEL melanoma): > 100 µM
TGI (LXFL 529 NSCLC): > 100 µM
TGI (NCI-H23 lung): > 100 µM
TGI (M14 melanoma): > 100 µM
TGI (U251 CNS): > 100 µM
TGI (UACC-62 melanoma): > 100 µM
TGI (SF-268 CNS): > 100 µM
TGI (SF-295 CNS): > 100 µM
